Experimental data taken from US4666932A, “Formamidine derivatives and pharmaceutical use” (Istituto de Angeli S.p.A., priority 1982, dated 1987).

Key:
histamine H2 -receptors [1] = biological target: T1, histamine H2 -receptors (Cavia porcellus, UniProt P47747); experiment: In vitro inhibition of histamine induced tachycardia (positive chronotropic effect), isolated guinea pig atria; assay type: cell-based; conditions: 32° C., pH 7.4, 30 minutes contact before histamine 10^-6 g.ml^-1
T1 construct: isolated guinea pig atria suspended in an organ bath (50 ml); from tissue; host or cells: isolated guinea pig atria
T1 sequence (P47747 whole entry): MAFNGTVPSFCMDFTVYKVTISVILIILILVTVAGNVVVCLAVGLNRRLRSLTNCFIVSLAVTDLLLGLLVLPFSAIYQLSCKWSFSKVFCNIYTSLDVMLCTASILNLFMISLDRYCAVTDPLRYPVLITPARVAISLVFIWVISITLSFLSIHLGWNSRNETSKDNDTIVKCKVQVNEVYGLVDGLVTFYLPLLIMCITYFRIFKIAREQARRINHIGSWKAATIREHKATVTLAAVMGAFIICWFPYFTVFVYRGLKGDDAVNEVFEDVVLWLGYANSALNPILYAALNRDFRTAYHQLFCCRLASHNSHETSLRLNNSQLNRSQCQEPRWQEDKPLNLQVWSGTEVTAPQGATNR
Description: The myocardial preparation, loaded with 1 g isometric tension, was allowed to stabilize 60 minutes, and myocardial contractions were recorded through an isometric lever connected to a strain-gauge coupler and the instantaneous rate was monitored with a cardiotachometer, and a heatwriting pen recorder. After two control responses to histamine (10^-6 g.ml^-1) the test compound was added to the bath at the desired final concentration and left for 30 minutes before the atria were again challenged with histamine. The chronotropic response obtained in the presence of the antagonist was then compared to the control response to histamine, and the percent reduction of the histamine H2 -evoked response was calculated. […] 3, Smooth muscle, Ed. Daniel E. E. Paton, M., Plenum Press, New York, (1975); Ash and Schild, Br. J. Pharmacol. Chemother. 27, 427-439, 1966.

histamine H2 -receptors [2] = biological target: T2, histamine H2 -receptors (Rattus norvegicus, UniProt P25102); experiment: In vivo antisecretory activity in histamine-induced gastric secretion (stomach-perfused rat); conditions: i.v., histamine 1 mg.kg^-1 hr^-1 intravenous, urethane anesthesia, values expressed taking the compound as a base
T2 construct: from tissue; host or cells: stomach of the living, anaesthetised rat (in vivo)
T2 sequence (P25102 whole entry, the tested form may be a part): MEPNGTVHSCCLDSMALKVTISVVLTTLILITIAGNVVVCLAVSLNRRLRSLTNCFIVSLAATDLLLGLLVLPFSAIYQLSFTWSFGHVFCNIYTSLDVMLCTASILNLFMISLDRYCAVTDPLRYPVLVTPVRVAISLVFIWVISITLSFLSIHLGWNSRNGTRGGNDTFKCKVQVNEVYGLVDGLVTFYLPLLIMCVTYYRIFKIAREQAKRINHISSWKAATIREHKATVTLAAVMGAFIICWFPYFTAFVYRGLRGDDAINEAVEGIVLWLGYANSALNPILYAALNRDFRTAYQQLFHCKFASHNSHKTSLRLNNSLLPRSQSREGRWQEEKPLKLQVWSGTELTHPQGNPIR
Excerpt: The ability of the test compounds to inhibit histamine-induced gastric secretion of acid was investigated after intravenous or intraduodenal administration in stomach-perfused rats, according to Gosh and Schild (Br. J. Pharmacol. Chemother. 13, 54, 1958).
The preparation of the animals under general anesthesia (urethane, lg.kg^-1 i.p.) and constant temperature, was achieved by inserting and tying in place polyethylene tubes (PE 50) in the esophagus and in the pyloric-antral region. After the stomach was washed to remove residual of foods, continuous perfusion of the stomach was started with saline, 0.5 ml.min^-1 (37° C.), primed by a Jobling peristaltic pump. After 30 minutes of perfusion adaptation, the stomach perfusate was collected in 30 minute samples, and titrated for acid content, expressed as μEq of NaOH 1N. As control acid output became constant, intravenous perfusion of histamine (1 mg.kg^-1 hr^-1) was started and maintained throughout the experimental period. After the acid secretion had reached the steadily higher level, increasing doses of the test compound were injected intravenously in order to obtain dose-response functions. The ED50 was then calculated by standard procedure.

gastric acid secretion = conditions: prior art statement; cited from earlier work

| SMILES | EC50 (histamine H2 -receptors [1]) [µM] | ED50 (histamine H2 -receptors [2]) [mg/kg] | effect on gastric acid secretion (gastric acid secretion) |
| --- | --- | --- | --- |
| CC(O)CNC=Nc1ccc(-c2c[nH]cn2)cc1 (stereo not drawn) [6 (a), N-(2-hydroxypropyl)-N'-[4-(imidazol-4-yl)-phenyl]-formamidine] | 1.27 | 0.043 |  |
| CSCCNC=Nc1ccc(-c2c[nH]cn2)cc1 [6 (b), N-(2-Methylthio-ethyl)-N'-[4-(imidazol-4-yl)-phenyl]-formamidine] | 0.327 | 0.022 |  |
| N#CCCNC=Nc1ccc(-c2c[nH]cn2)cc1 [6 (j), N-(2-Cyano-ethyl)-N'-[4-(imidazol-4-yl)-phenyl]-formamidine] | 1.6 | 0.046 |  |
| CCCCNC=Nc1ccc(-c2c[nH]cn2)cc1C [6 (k), N-n-Butyl-N'-[4-(imidazol-4-yl)-2-methyl-phenyl]-formamidine] | 0.309 | 0.078 |  |
| C=CCNC=Nc1ccc(-c2c[nH]cn2)cc1C [6 (l), N-Allyl-N'-[4-(imidazol-4-yl)-2-methyl-phenyl]-formamidine] | 0.294 | 0.09 |  |
| CCCNC=Nc1ccc(-c2c[nH]cn2)cc1OC [6 (m), N-Propyl-N'-[2-methoxy-4-(imidazol-4-yl)-phenyl]-formamidine] | 0.6 | 0.059 |  |
| CCOCSCCNC=Nc1ccc(-c2c[nH]cn2)cc1 [8 (b), N-(2-Ethoxymethylthio-ethyl)-N'-[4-(imidazol-4-yl)-phenyl]-formamidine] | 0.32 | 0.083 |  |
| CCCNC=Nc1ccc(-c2c[nH]cn2)cc1Br [8 (c), N-n-Propyl-N'-[2-bromo-4-(imidazol-4-yl)-phenyl]-formamidine] | 0.35 | 0.117 |  |
| CN/C(=N/CCSCc1nc[nH]c1C)NC#N [CIMETIDINE, cimetidine] |  |  | capable of antagonizing gastric acid secretion |
| COCCN=CNc1ccc(-c2c[nH]cn2)cc1 [Example 6, N-(2-Methoxy-ethyl)-N'-[4-(imidazol-4-yl)-phenyl]-formamidine] | 0.588 | 0.05 |  |
| CNC(=S)NCCCCc1cnc[nH]1 [burimamide] |  |  | capable of antagonizing gastric acid secretion |
| COc1ccc(CN(CCN(C)C)c2ccccn2)cc1 [mepyramine] |  |  | no effect on gastric acid secretion |
| C/N=C(\S)NCCSCc1[nH]cnc1C [metiamide] |  |  | capable of antagonizing gastric acid secretion |
| CNC(=C[N+](=O)[O-])NCCSCc1ccc(CN(C)C)o1 [ranitidine] |  |  | capable of antagonizing gastric acid secretion to a greater extent than cimetidine |
| CNC(=NCCSCc1csc(N=C(N)N)n1)NC#N [tiotidine] |  |  | capable of antagonizing gastric acid secretion to a greater extent than cimetidine |
